Measurements reported in the NIST ThermoML archive (doi:10.1021/je7003116).

Experiment: mn = molality of the nth substance listed, in mol/kg
Conditions: for electrical conductivity / mass density: 101 kPa, Liquid; for electrical conductivity: Alternating current cell with electrodes

CC(=O)CC(c1ccccc1)c1c([O-])c2ccccc2oc1=O.[Na+] (stereo not given) [warfarin sodium] + O
Conditions	electrical conductivity [S/m]	mass density [kg/m3]	surface tension liquid-gas [mN/m]
293.15 K, m1 = 0.005	0.0273	–	–
293.15 K, m1 = 0.00573	–	998.701	–
293.15 K, m1 = 0.006	0.0326	–	66.46
293.15 K, m1 = 0.00689	–	998.801	–
293.15 K, m1 = 0.007	0.0379	–	65.61
293.15 K, m1 = 0.00749	–	998.852	–
293.15 K, m1 = 0.008	0.0434	–	64.92
293.15 K, m1 = 0.00851	–	998.94	–
293.15 K, m1 = 0.009	0.0485	–	64.06
293.15 K, m1 = 0.00983	–	999.054	–
293.15 K, m1 = 0.01	0.0535	–	62.77
293.15 K, m1 = 0.018	–	–	58.07
293.15 K, m1 = 0.02	0.1042	–	–
293.15 K, m1 = 0.02401	–	1000.27	–
293.15 K, m1 = 0.027	–	–	52.97
293.15 K, m1 = 0.04	0.198	–	50.48
293.15 K, m1 = 0.0466	–	1002.19	–
293.15 K, m1 = 0.054	–	–	48.47
293.15 K, m1 = 0.06	0.283	–	–
293.15 K, m1 = 0.067	–	–	45.58
293.15 K, m1 = 0.0718	–	1004.26	–
293.15 K, m1 = 0.078	–	–	43.98
293.15 K, m1 = 0.08	0.381	–	–
293.15 K, m1 = 0.089	–	–	41.68
293.15 K, m1 = 0.0984	–	1006.41	–
293.15 K, m1 = 0.1	0.464	–	–
293.15 K, m1 = 0.107	–	–	41.58
293.15 K, m1 = 0.125	0.56	–	40.94
293.15 K, m1 = 0.1251	–	1008.51	–
293.15 K, m1 = 0.15	0.651	1010.43	40.38
293.15 K, m1 = 0.175	0.737	–	40.23
293.15 K, m1 = 0.176	–	1012.59	–
293.15 K, m1 = 0.2	0.822	1014.56	40.72
293.15 K, m1 = 0.225	0.901	1016.71	40.23
293.15 K, m1 = 0.25	0.974	1018.89	39.64
293.15 K, m1 = 0.275	1.041	1020.99	–
293.15 K, m1 = 0.279	–	–	40.09
293.15 K, m1 = 0.3	1.102	1023.15	–
293.15 K, m1 = 0.325	–	1025.24	–
293.15 K, m1 = 0.35	–	1027.33	–
293.15 K, m1 = 0.375	–	1029.29	–
293.15 K, m1 = 0.401	–	1031.33	–
303.15 K, m1 = 0.005	0.0288	–	–
303.15 K, m1 = 0.00579	–	996.134	–
303.15 K, m1 = 0.006	0.0344	–	–
303.15 K, m1 = 0.00695	–	996.231	–
303.15 K, m1 = 0.007	0.04	–	–
303.15 K, m1 = 0.00754	–	996.281	–
303.15 K, m1 = 0.008	0.0455	–	–
303.15 K, m1 = 0.00857	–	996.367	–
303.15 K, m1 = 0.009	0.051	–	–
303.15 K, m1 = 0.00987	–	996.476	–
303.15 K, m1 = 0.01	0.0565	–	–
303.15 K, m1 = 0.02	0.1087	–	–
303.15 K, m1 = 0.024	–	997.658	–
303.15 K, m1 = 0.04	0.209	–	–
303.15 K, m1 = 0.0465	–	999.515	–
303.15 K, m1 = 0.06	0.302	–	–
303.15 K, m1 = 0.0715	–	1001.52	–
303.15 K, m1 = 0.08	0.39	–	–
303.15 K, m1 = 0.0983	–	1003.59	–
303.15 K, m1 = 0.1	0.473	–	–
303.15 K, m1 = 0.125	0.575	1005.62	–
303.15 K, m1 = 0.15	0.67	1007.48	–
303.15 K, m1 = 0.175	0.761	–	–
303.15 K, m1 = 0.176	–	1009.57	–
303.15 K, m1 = 0.2	0.847	1011.47	–
303.15 K, m1 = 0.225	0.928	1013.56	–
303.15 K, m1 = 0.25	1.008	1015.65	–
303.15 K, m1 = 0.275	1.081	1017.69	–
303.15 K, m1 = 0.3	1.154	1019.77	–
303.15 K, m1 = 0.325	–	1021.79	–
303.15 K, m1 = 0.35	–	1023.81	–
303.15 K, m1 = 0.375	–	1025.71	–
303.15 K, m1 = 0.3999	–	1027.67	–
313.15 K, m1 = 0.005	0.0299	–	–
313.15 K, m1 = 0.00576	–	992.687	–
313.15 K, m1 = 0.006	0.0358	–	–
313.15 K, m1 = 0.00695	–	992.784	–
313.15 K, m1 = 0.007	0.0416	–	–
313.15 K, m1 = 0.00759	–	992.836	–
313.15 K, m1 = 0.008	0.0474	–	–
313.15 K, m1 = 0.00857	–	992.916	–
313.15 K, m1 = 0.009	0.0532	–	–
313.15 K, m1 = 0.00988	–	993.022	–
313.15 K, m1 = 0.01	0.059	–	–
313.15 K, m1 = 0.02	0.1131	–	–
313.15 K, m1 = 0.0241	–	994.171	–
313.15 K, m1 = 0.04	0.216	–	–
313.15 K, m1 = 0.047	–	995.977	–
313.15 K, m1 = 0.06	0.314	–	–
313.15 K, m1 = 0.0719	–	997.928	–
313.15 K, m1 = 0.08	0.401	–	–
313.15 K, m1 = 0.0984	–	999.945	–
313.15 K, m1 = 0.1	0.489	–	–
313.15 K, m1 = 0.125	0.595	1001.91	–
313.15 K, m1 = 0.15	0.694	1003.72	–
313.15 K, m1 = 0.175	0.79	–	–
313.15 K, m1 = 0.176	–	1005.74	–
313.15 K, m1 = 0.2	0.88	1007.59	–
313.15 K, m1 = 0.225	0.963	1009.61	–
313.15 K, m1 = 0.25	1.046	1011.64	–
313.15 K, m1 = 0.275	1.13	1013.62	–
313.15 K, m1 = 0.3	1.206	1015.64	–
313.15 K, m1 = 0.325	–	1017.6	–
313.15 K, m1 = 0.35	–	1019.56	–
313.15 K, m1 = 0.375	–	1021.4	–
313.15 K, m1 = 0.4009	–	1023.31	–
323.15 K, m1 = 0.005	0.0327	–	–
323.15 K, m1 = 0.00585	–	988.498	–
323.15 K, m1 = 0.006	0.039	–	–
323.15 K, m1 = 0.007	0.0454	–	–
323.15 K, m1 = 0.00702	–	988.591	–
323.15 K, m1 = 0.00767	–	988.642	–
323.15 K, m1 = 0.008	0.0516	–	–
323.15 K, m1 = 0.0087	–	988.722	–
323.15 K, m1 = 0.009	0.0576	–	–
323.15 K, m1 = 0.01	0.0638	–	–
323.15 K, m1 = 0.01001	–	988.824	–
323.15 K, m1 = 0.02	0.1211	–	–
323.15 K, m1 = 0.0243	–	989.947	–
323.15 K, m1 = 0.04	0.233	–	–
323.15 K, m1 = 0.0469	–	991.708	–
323.15 K, m1 = 0.06	0.338	–	–
323.15 K, m1 = 0.072	–	993.609	–
323.15 K, m1 = 0.08	0.429	–	–
323.15 K, m1 = 0.0985	–	995.582	–
323.15 K, m1 = 0.1	0.523	–	–
323.15 K, m1 = 0.125	0.634	997.493	–
323.15 K, m1 = 0.15	0.734	999.248	–
323.15 K, m1 = 0.175	0.83	–	–
323.15 K, m1 = 0.1765	–	1001.22	–
323.15 K, m1 = 0.2	0.921	1003.02	–
323.15 K, m1 = 0.225	1.008	1004.99	–
323.15 K, m1 = 0.25	1.091	1006.96	–
323.15 K, m1 = 0.275	1.171	1008.89	–
323.15 K, m1 = 0.3	1.245	1010.86	–
323.15 K, m1 = 0.325	–	1012.77	–
323.15 K, m1 = 0.35	–	1014.68	–
323.15 K, m1 = 0.375	–	1016.47	–
323.15 K, m1 = 0.4021	–	1018.32	–
